Each structure is given as a SMILES string.

The first data set concerns Plasmodium falciparum. The experiment in a line: Antimalarial activity against chloroquine-sensitive Plasmodium falciparum 3D7 infected in human erythrocytes assessed as reduction in parasitemia at 10 uM incubated for 72 hrs by SYBR green dye based fluorescence assay relative to control. The class given is functional. Particulars: 3D7, Erythrocyte.
Regarding `O=C(NCC12CC(CN1Cc1ccccc1)C2)c1ccccc1`, the inhibition (in general, the drop in the measured response relative to a control, in per cent) at 10 µM was -20%.
Take `Cc1cccc(C(=O)NCC23CC(CN2Cc2ccccc2)C3)c1`: the inhibition at 10 µM came to 7.6%.
For `O=C(NCC12CC(CN1Cc1ccccc1)C2)c1cc(F)ccc1F`, the inhibition at 10 µM was 67%.
Still for that read-out and setting: for `O=C(NCC12CC(CN1Cc1ccccc1)C2)c1cccc(Cl)c1Cl` the value was -8.2%; for `O=C(NCC12CC(CN1Cc1ccccc1)C2)c1ccc(Cl)cc1`, 38%.
The same measure, in the same setting: the result for `O=C(Cc1ccc(F)c(Br)c1)NCC12CC(CN1Cc1ccccc1)C2` reads 40%.
Same read-out and setting: the result for `O=C(NCC12CC(CN1Cc1ccccc1)C2)c1cccc(Br)c1` reads 35%.
On to `O=C(NCC12CC(CN1Cc1ccccc1)C2)c1ccccc1Cl`, for which the inhibition at 10 µM is -7.9%.
The same measure, in the same setting: for `O=C(Cc1cc(F)ccc1F)NCC12CC(CN1Cc1ccccc1)C2` the value was -8.2%.

The next data set concerns Plasmodium falciparum. The experiment in a line: Antimalarial activity against chloroquine-sensitive Plasmodium falciparum 3D7 infected in human erythrocytes assessed as reduction in parasitemia incubated for 72 hrs by SYBR green dye based fluorescence assay. Format: functional, organism-based. Conditions: 3D7, Erythrocyte.
Consider `O=C(Cc1ccc(Cl)c(Cl)c1)NCC12CC(CN1Cc1ccccc1)C2`, for which the half-maximal inhibitory concentration (IC50) (usually the concentration that gives 50% inhibition) was found to be 11 µM.
The same measure, in the same setting: for `O=C(NCC12CC(CN1Cc1ccccc1)C2)C1CC1c1cc(Cl)cc(Cl)c1` (configuration not stated) the value was 4.5 µM; for `O=C(NCC12CC(CN1Cc1ccccc1)C2)c1ccc(-c2ccco2)cc1`, 9.4 µM; for `CC(C)(C)c1cc(C(=O)NCC23CC(CN2Cc2ccccc2)C3)cc(C(C)(C)C)c1`, 2.6 µM.
On the same count and under the same terms, the result for `CSc1ccc(Cl)c(C(=O)NCC23CC(CN2Cc2ccccc2)C3)c1` reads 18 µM; that for `O=C(/C=C/c1ccc(F)cc1)NCC12CC(CN1Cc1ccccc1)C2`, 13 µM; that for `Cc1nn(-c2ccccc2)nc1C(=O)NCC12CC(CN1Cc1ccccc1)C2`, 14 µM.
The same measure, in the same setting: the result for `O=C(NCC12CC(CN1Cc1ccccc1)C2)c1cccc(OC(F)(F)F)c1` reads 9.4 µM; that for `O=C(Cc1cccc(C(F)(F)F)c1)NCC12CC(CN1Cc1ccccc1)C2`, 22 µM.
As to `COc1cccc(C(=O)NCC23CC(CN2Cc2ccccc2)C3)c1C`, the half-inhibitory concentration (IC50) amounted to 15 µM.
Same read-out and setting: for `O=C(NCC12CC(CN1Cc1ccccc1)C2)c1ccc2cccc(Br)c2n1` the value was 9 µM; for `COc1ccc(C2(C(=O)NCC34CC(CN3Cc3ccccc3)C4)CCCC2)cc1`, 9.6 µM.
Still for that read-out and setting: the result for `O=C(NCC12CC(CN1Cc1ccccc1)C2)c1ccc(F)c(Cl)c1` reads 8.5 µM.
Same read-out and setting: the result for `O=C(NCC12CC(CN1Cc1ccccc1)C2)c1ccc(Br)c(Cl)c1` reads 3.6 µM.
On to `O=C(NCC12CC(CN1Cc1ccccc1)C2)c1ccc(Br)cc1Cl`, for which the IC50 stood at 8.8 µM.
Still for that read-out and setting: the result for `O=C(NCC12CC(CN1Cc1ccccc1)C2)c1cc(F)cc(C(F)(F)F)c1` reads 8.9 µM; that for `Cc1cc(C(=O)NCC23CC(CN2Cc2ccccc2)C3)no1`, 3.4 µM; that for `O=C(NCC12CC(CN1Cc1ccccc1)C2)c1cc(Br)cc(C(F)(F)F)c1`, 2.7 µM.
The same measure, in the same setting: the result for `O=C(NCC12CC(CN1Cc1ccccc1)C2)c1ccc(OCc2ccccc2)cc1` reads 6.2 µM; that for `O=C(NCC12CC(CN1Cc1ccccc1)C2)c1ccc(Br)c(F)c1`, 10 µM.
Still for that read-out and setting: for `C=Cc1ccc(C(=O)NCC23CC(CN2Cc2ccccc2)C3)cc1` the value was 8.5 µM; for `CC(C)(C)OC(=O)N[C@H](C(=O)NCC12CC(CN1Cc1ccccc1)C2)C1CCCCC1`, 24 µM.
On to `O=C(NCC12CC(CN1Cc1ccccc1)C2)C1(c2ccc(Cl)cc2Cl)CC1`, for which the IC50 was 1.1 µM.
Same read-out and setting: for `O=C(NCC12CC(CN1Cc1ccccc1)C2)c1cc(Br)c(Br)s1` the value was 3.7 µM; for `Cc1cc(C(=O)NCC23CC(CN2Cc2ccccc2)C3)ccc1Br`, 9.4 µM; for `O=C(NCC12CC(CN1Cc1ccccc1)C2)c1ccc(Cl)c(C(F)(F)F)c1`, 3.3 µM.
For the compound `O=C(NCC12CC(CN1Cc1ccccc1)C2)c1cc2cc(Br)ccc2o1`, the half-inhibitory concentration (IC50) came out at 3.9 µM.
On the same count and under the same terms, for `COc1ccc(C(=O)NCC23CC(CN2Cc2ccccc2)C3)cc1Cl` the value was 16 µM; for `O=C(NCC12CC(CN1Cc1ccccc1)C2)c1cccc(Cl)c1`, 13 µM.
Still for that read-out and setting: the result for `O=C(NCC12CC(CN1Cc1ccccc1)C2)c1cc(Cl)cc(C(F)(F)F)c1` reads 1.3 µM; that for `O=C(CCCC1CCCCC1)NCC12CC(CN1Cc1ccccc1)C2`, 13 µM; that for `CC(C)(C)OC(=O)Nc1ccccc1C(=O)NCC12CC(CN1Cc1ccccc1)C2`, 7.2 µM.
Same read-out and setting: the result for `O=C(/C=C/c1ccccc1Cl)NCC12CC(CN1Cc1ccccc1)C2` reads 5.8 µM.
With `COc1ccc(NC(=O)OC(C)(C)C)c(C(=O)NCC23CC(CN2Cc2ccccc2)C3)c1`, the half-inhibitory concentration (IC50) was 6.2 µM.
Take `COc1cc(C(=O)NCC23CC(CN2Cc2ccccc2)C3)ccc1Br`: the IC50 is 5.7 µM.
For the compound `Cc1ccc(Cl)cc1C(=O)NCC12CC(CN1Cc1ccccc1)C2`, the IC50 was 19 µM.
The same measure, in the same setting: for `O=C(NCC12CC(CN1Cc1ccccc1)C2)c1ccc(Cl)c(Br)c1` the value was 5.2 µM.
For the compound `O=C(NCC12CC(CN1Cc1ccccc1)C2)c1cc2c(Br)cccc2[nH]1`, the half-inhibitory concentration (IC50) is 1.6 µM.
Same read-out and setting: for `O=C(NCC12CC(CN1Cc1ccccc1)C2)c1c[nH]c2c(Cl)cccc12` the value was 5.1 µM.
Still for that read-out and setting: the result for `O=C(NCC12CC(CN1Cc1ccccc1)C2)c1cc(F)c(Cl)c(F)c1` reads 12 µM; that for `Cc1ccc(-c2cc(C(=O)NCC34CC(CN3Cc3ccccc3)C4)[nH]n2)o1`, 15 µM.
On the same count and under the same terms, for `O=C(Cc1ccc(Br)c(F)c1)NCC12CC(CN1Cc1ccccc1)C2` the value was 24 µM; for `O=C(NCC12CC(CN1Cc1ccccc1)C2)C1(c2ccc(Cl)cc2)CCC1`, 6.2 µM.
For `COc1ccc2cc(C(=O)NCC34CC(CN3Cc3ccccc3)C4)ccc2c1`, the IC50 was 3.6 µM.
Still for that read-out and setting: for `O=C(NCC12CC(CN1Cc1ccccc1)C2)c1ccc2[nH]nc(Br)c2c1` the value was 5.5 µM; for `O=C(NCC12CC(CN1Cc1ccccc1)C2)c1ccc(C(F)(F)F)cc1Cl`, 8.7 µM; for `O=C(NCC12CC(CN1Cc1ccccc1)C2)c1ccc(F)c(Br)c1`, 12 µM.
On to `O=C(NCC12CC(CN1Cc1ccccc1)C2)c1ccc(OC(F)(F)F)cc1`, for which the half-maximal inhibitory concentration (IC50) stood at 12.7 µM.
On the same count and under the same terms, for `COc1cccc2c(C(=O)NCC34CC(CN3Cc3ccccc3)C4)c[nH]c12` the value was 19 µM.
Still for that read-out and setting: for `CCCCCCCCCC(=O)NCC12CC(CN1Cc1ccccc1)C2` the value was 7.4 µM.
Take `O=C(NCC12CC(CN1Cc1ccccc1)C2)c1coc2ccccc12`: the IC50 came to 15 µM.
The same measure, in the same setting: for `O=C(NCC12CC(CN1Cc1ccccc1)C2)c1ccc2[nH]ccc2c1` the value was 17 µM; for `O=C(NCC12CC(CN1Cc1ccccc1)C2)c1ccc(Br)s1`, 12.7 µM.
The same measure, in the same setting: for `O=C(/C=C/c1ccccc1F)NCC12CC(CN1Cc1ccccc1)C2` the value was 11 µM; for `O=C(NCC12CC(CN1Cc1ccccc1)C2)c1ccc(Cl)c(Cl)c1`, 5.1 µM.
For `O=C(/C=C/c1cccc(F)c1)NCC12CC(CN1Cc1ccccc1)C2`, the half-inhibitory concentration (IC50) came out at 22 µM.
For the compound `Cn1ccc2ccc(C(=O)NCC34CC(CN3Cc3ccccc3)C4)cc21`, the IC50 stood at 7.1 µM.
On the same count and under the same terms, the result for `Cc1cc2[nH]c(C(=O)NCC34CC(CN3Cc3ccccc3)C4)cc2o1` reads 11 µM; that for `O=C(NCC12CC(CN1Cc1ccccc1)C2)c1cc(Br)cs1`, 22 µM; that for `O=C(NCC12CC(CN1Cc1ccccc1)C2)c1ccc2ccccc2c1`, 14 µM.
For `O=C(NCC12CC(CN1Cc1ccccc1)C2)c1ccc(-n2cccn2)cc1Cl`, the IC50 is 19 µM.

System in another data set: not listed separately
The experiment in a line: 1-Octanol/phosphate buffered-saline distribution coefficient, logD of compound in pH 7.4 at 75 uM measured after 2 hrs under shaking condition by LC-MS analysis. Format: physicochemical.
Settings: not given
Turning to `O=C(NCC12CC(CN1Cc1ccccc1)C2)c1cc(Cl)cc(C(F)(F)F)c1`, the logD (commonly lipophilicity at a set pH, counting ionised and neutral species) at 2 h, 75 µM amounted to 3.2.

System in a further data set: not listed separately
The experiment in a line: Kinetic solubility of compound in PBS buffer measured after 2 hrs under shaking condition by UV spectroscopic analysis. Conditions: read-out: Kinetic_solubility. Format: physicochemical.
For `O=C(NCC12CC(CN1Cc1ccccc1)C2)c1cc(Cl)cc(C(F)(F)F)c1`, the solubility kinetic at 2 h was more than 200 µM.

System in a further data set: not listed separately
The experiment in a line: Intrinsic clearance in human liver microsome at 1 uM measured upto 60 mins by LC-MS/MS analysis. Conditions: microsomes, 1 h. Format: ADME. A general note: Liver microsomes are vesicles of endoplasmic reticulum, rich in cytochrome P450 enzymes.
`O=C(NCC12CC(CN1Cc1ccccc1)C2)c1cc(Cl)cc(C(F)(F)F)c1`: the CLint stood at 27 µL/min/mg.

System in another data set: not listed separately
The experiment in a line: Intrinsic clearance in rat hepatocytes at 1 uM incubated upto 90 mins measured per 10^6 cells by LC-MS/MS analysis. Format: ADME, cell-based, Hepatocyte. Conditions: 1.5 h, time 0-90 min.
Regarding `O=C(NCC12CC(CN1Cc1ccccc1)C2)c1cc(Cl)cc(C(F)(F)F)c1`, the CLint turned out to be 8 µL/min/1e6 cells.

The test system of a further data set is HepG2. The experiment in a line: Cytotoxicity against human HepG2 cells incubated for 72 hrs by Cell Titer Glo assay. Format: cell-based. Conditions: HepG2, 72 h. (In general: In ATP-based viability assays light output follows the ATP content of the culture.)
In turn, `O=C(NCC12CC(CN1Cc1ccccc1)C2)c1cc(Cl)cc(C(F)(F)F)c1` registered an IC50 of more than 17 µM.

The subject of a further data set is Plasmodium falciparum. The experiment in a line: Antimalarial activity against […] Plasmodium falciparum 3D7 by LDH assay. Format: functional, organism-based.
Settings: not given
Take `O=C(NCC12CC(CN1Cc1ccccc1)C2)c1cc(Cl)cc(C(F)(F)F)c1`: half-maximal inhibition (IC50) required 4.3 µM.

A further data set relates to Plasmodium falciparum. The experiment in a line: Antimalarial activity against multi-drug-resistant Plasmodium falciparum Dd2 by LDH assay. Format: functional, organism-based.
Settings: not given
In turn, `O=C(NCC12CC(CN1Cc1ccccc1)C2)c1cc(Cl)cc(C(F)(F)F)c1` had an IC50 of 5.4 µM.
